Measurements as given in ChEMBL document CHEMBL4371036, “Discovery and structure-activity relationship of imidazolinylindole derivatives as kallikrein 7 inhibitors” (Bioorg Med Chem Lett, 2019).

Columns and labels:
Kallikrein-7 [1] = molecular target: Kallikrein-7 (Homo sapiens, UniProt P49862); experiment: Inhibition of thermolysin activated recombinant human C-terminal 10-His tagged KLK7 (E23 to H252 residues) using MOCAc-Arg-Pro-Lys-Pro-Val-Glu-Nva-Trp-Arg-Lys(Dnp)-NH2 as substrate preincubated for 10 mins followed by substrate addition and measured after 30 mins by fluorescence analysis
Chain of Kallikrein-7 (Homo sapiens, UniProt P49862) (P49862 whole entry, the tested form may be a part): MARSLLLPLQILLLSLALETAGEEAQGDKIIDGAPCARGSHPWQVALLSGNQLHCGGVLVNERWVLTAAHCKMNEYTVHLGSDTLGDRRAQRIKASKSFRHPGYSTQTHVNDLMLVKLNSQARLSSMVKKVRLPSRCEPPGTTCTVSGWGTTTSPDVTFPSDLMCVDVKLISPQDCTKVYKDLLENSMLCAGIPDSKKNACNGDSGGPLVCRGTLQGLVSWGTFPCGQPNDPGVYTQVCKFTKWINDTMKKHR

Kallikrein-7 [2] = molecular target: Kallikrein-7 (Mus musculus, UniProt Q91VE3); experiment: (§1) Inhibition of enterokinase activated recombinant mouse C-terminal His6-tagged KLK7 (Gln22 to Arg249 residues) using MOCAc-Arg-Pro-Lys-Pro-Val-Glu-Nva-Trp-Arg-Lys(Dnp)-NH2 as substrate preincubated for 10 mins followed by substrate addition and measured after 30 mins by fluorescence analysis
Chain of Kallikrein-7 (Mus musculus, UniProt Q91VE3) (Q91VE3 whole entry): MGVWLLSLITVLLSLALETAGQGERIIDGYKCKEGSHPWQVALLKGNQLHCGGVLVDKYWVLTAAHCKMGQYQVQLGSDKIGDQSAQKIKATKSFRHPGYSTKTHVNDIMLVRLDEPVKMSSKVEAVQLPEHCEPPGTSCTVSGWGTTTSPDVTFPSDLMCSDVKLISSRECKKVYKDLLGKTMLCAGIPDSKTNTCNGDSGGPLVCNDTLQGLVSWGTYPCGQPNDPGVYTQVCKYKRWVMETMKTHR

[3] = molecular target: Kallikrein-7 (Mus musculus) (UniProt Q91VE3); experiment: as §1, with “residues) at 100 uM” for “residues)”, “analysis relative to control” for “analysis”
Chain of Kallikrein-7 (Mus musculus) (Q91VE3 whole entry): as above

Row | Structure (SMILES) | IC50 (Kallikrein-7 [1]) [µM] | IC50 (Kallikrein-7 [2]) [µM] | inhibition [3] [%]
1 | CC1=NC(c2cn(S(=O)(=O)c3ccccc3C#N)c3ccc(C)cc23)CN1 (configuration not stated) | 6.7 | 11 | 
2 | CC1=NC(c2cn(S(=O)(=O)c3ccc(Cl)cc3)c3ccc(Br)cc23)CN1 (configuration not stated) | 4.7 |  | 35
3 | CC1=NC(c2cn(S(=O)(=O)c3ccc(Cl)cc3)c3ccccc23)CN1C (configuration not stated) | > 30 |  | 
4 | CC1=NC(c2cn(S(=O)(=O)c3cccs3)c3ccc(C)cc23)CN1 (configuration not stated) | 11 | 22 | 
5 | CC1=NC(c2cn(S(=O)(=O)c3ccc(Cl)cc3)c3ccc(C)cc23)CN1 (configuration not stated) | 1.9 | > 100 | 33
6 | CC1=NC(c2cn(S(=O)(=O)c3ccccc3F)c3ccc(C)cc23)CN1 (configuration not stated) | 4.1 | 6.4 | 
7 | CC1=NC(c2cn(S(=O)(=O)c3ccccc3)c3ccc(C)cc23)CN1 (configuration not stated) | 17 | 15 | 
8 | CC1=NC(c2cn(S(C)(=O)=O)c3ccccc23)CN1 (configuration not stated) | > 100 |  | 
9 | CC1=NC(c2cn(Cc3ccc(Cl)cc3)c3ccccc23)CN1 (configuration not stated) | 22 |  | 
10 | CCC1=NC(c2cn(S(=O)(=O)c3ccc(C)cc3)c3ccccc23)CN1 (configuration not stated) | 24 |  | 
11 | CC1=NC(c2cn(S(=O)(=O)c3ccccc3C)c3ccc(C)cc23)CN1 (configuration not stated) | 1 | 1.3 | 
12 | CC1=NC(c2cn(S(=O)(=O)c3ccc(C)cc3)c3ccccc23)CN1 (configuration not stated) | 10 |  | 14
13 | CC1=NC(c2cn(S(=O)(=O)c3ccc(F)cc3)c3ccc(C)cc23)CN1 (configuration not stated) | 9.4 | > 30 | 
14 | Cc1ccc(S(=O)(=O)n2cc(C3CNC(C4CCCCC4)=N3)c3ccccc32)cc1 (configuration not stated) | > 100 |  | 
15 | CC1=NC(c2cn(S(=O)(=O)c3ccc(Cl)cc3)c3ccccc23)CN1 (configuration not stated) | 5.7 |  | 17
16 | Cc1ccc(S(=O)(=O)n2cc(C3CNC(C(C)C)=N3)c3ccccc32)cc1 (configuration not stated) | 70 |  | 
17 | CC1=NC(c2cn(S(=O)(=O)c3ccccc3Br)c3ccc(C)cc23)CN1 (configuration not stated) | 0.39 | 0.4 | 
18 | CC1=NC(c2cn(S(=O)(=O)c3cccc(Cl)c3)c3ccccc23)CN1 (configuration not stated) | > 30 |  | 77
19 | CC1=NC(c2cn(S(=O)(=O)c3cccc(Cl)c3)c3ccc(C)cc23)CN1 (configuration not stated) | 30 | 10 | 
20 | CC1=NC(c2cn(S(=O)(=O)c3ccccc3Cl)c3ccc(C)cc23)CN1 (configuration not stated) | 1.2 | 1.5 | 
21 | CC1=NC(c2cn(S(=O)(=O)c3c(Cl)cccc3Cl)c3ccc(C)cc23)CN1 (configuration not stated) | 14 | 10 | 
